Source: patent US7211566B2 (Universite De Sherbrooke, priority 2003, dated 2007)
Square brackets hold non-standard residues; d marks the D form. Peptide text beside a SMILES is read from it. Oic = O=C(O)[C@@H]1C[C@@H]2CCCC[C@@H]2N1; d2Nal = N[C@H](Cc1ccc2ccccc2c1)C(=O)O; αMeF = C[C@](N)(Cc1ccccc1)C(=O)O; Orn = NCCC[C@H](N)C(=O)O

Legend:
Format in all cases: in vitro ADME
aminopeptidase M (AmM) = molecular target: T1, aminopeptidase M (AmM) (Homo sapiens, UniProt P15144); test: In vitro metabolic stability against human plasma AmM; settings: male, human plasma as source of aminopeptidase M, pH 7.5, peptide 200 μM, 60 min incubation, mean ± SEM of 3, read-out: Peptide metabolism (%) Human plasma AmM
T1 construct: incubated for 60 min with 50 μl of human plasma; from tissue; host or cells: human plasma from heparinized blood of healthy male volunteers
Experimental: (§1) These assays were performed using three enzyme preparations: purified angiotensin converting enzyme (ACE; from rabbit lung), human plasma as a, source of aminopeptidase M (AmM) and human platelets as a source of aminopeptidase P (AmP).
Human plasma AmM was prepared as previously described (Gobeil et al., 1999, Hypertension, 33, 823–829). Blood (5 ml) was withdrawn from healthy normotensive male Caucasian volunteers and put into heparinized tube (200 U). Blood samples were centrifuged at 1500 rpm for 15 min in a refrigerated tabletop centrifuge. The peptide antagonists (200 μM) were placed in a PBS buffer (50 mM, pH 7.5, containing 300 mM NaCl) and incubated for 60 min with 50 μl of human plasma (total volume of the medium, 375 μl). Immersing samples into boiling water and then cooling them on ice stopped the hydrolysis reaction. Control experiments have shown that ≈70% of the kininase activity that is present in the human plasma is abolished by amastatin (1 μM) and that the incubation of Lys-[Leu^8]desArg^9BK with this enzymatic preparation led to the production of [Leu^8]desArg^9BK as detected by electrospray mass spectrometry.

[1] = molecular target: T2, angiotensin converting enzyme (ACE) (Oryctolagus cuniculus, UniProt P12822); test: In vitro metabolic stability against purified rabbit lung ACE; settings: purified angiotensin converting enzyme from rabbit lung, pH 7.5, peptide 200 μM, 60 min at 37° C., mean ± SEM of 3, read-out: Peptide metabolism (%) Rabbit lung ACE
T2 construct: In Vitro Biochemical Stability Assays Against Purified Native Enzymes; purchased Sigma, St. Louis, Mo; host or cells: rabbit lung
T2 sequence (P12822 34-1310): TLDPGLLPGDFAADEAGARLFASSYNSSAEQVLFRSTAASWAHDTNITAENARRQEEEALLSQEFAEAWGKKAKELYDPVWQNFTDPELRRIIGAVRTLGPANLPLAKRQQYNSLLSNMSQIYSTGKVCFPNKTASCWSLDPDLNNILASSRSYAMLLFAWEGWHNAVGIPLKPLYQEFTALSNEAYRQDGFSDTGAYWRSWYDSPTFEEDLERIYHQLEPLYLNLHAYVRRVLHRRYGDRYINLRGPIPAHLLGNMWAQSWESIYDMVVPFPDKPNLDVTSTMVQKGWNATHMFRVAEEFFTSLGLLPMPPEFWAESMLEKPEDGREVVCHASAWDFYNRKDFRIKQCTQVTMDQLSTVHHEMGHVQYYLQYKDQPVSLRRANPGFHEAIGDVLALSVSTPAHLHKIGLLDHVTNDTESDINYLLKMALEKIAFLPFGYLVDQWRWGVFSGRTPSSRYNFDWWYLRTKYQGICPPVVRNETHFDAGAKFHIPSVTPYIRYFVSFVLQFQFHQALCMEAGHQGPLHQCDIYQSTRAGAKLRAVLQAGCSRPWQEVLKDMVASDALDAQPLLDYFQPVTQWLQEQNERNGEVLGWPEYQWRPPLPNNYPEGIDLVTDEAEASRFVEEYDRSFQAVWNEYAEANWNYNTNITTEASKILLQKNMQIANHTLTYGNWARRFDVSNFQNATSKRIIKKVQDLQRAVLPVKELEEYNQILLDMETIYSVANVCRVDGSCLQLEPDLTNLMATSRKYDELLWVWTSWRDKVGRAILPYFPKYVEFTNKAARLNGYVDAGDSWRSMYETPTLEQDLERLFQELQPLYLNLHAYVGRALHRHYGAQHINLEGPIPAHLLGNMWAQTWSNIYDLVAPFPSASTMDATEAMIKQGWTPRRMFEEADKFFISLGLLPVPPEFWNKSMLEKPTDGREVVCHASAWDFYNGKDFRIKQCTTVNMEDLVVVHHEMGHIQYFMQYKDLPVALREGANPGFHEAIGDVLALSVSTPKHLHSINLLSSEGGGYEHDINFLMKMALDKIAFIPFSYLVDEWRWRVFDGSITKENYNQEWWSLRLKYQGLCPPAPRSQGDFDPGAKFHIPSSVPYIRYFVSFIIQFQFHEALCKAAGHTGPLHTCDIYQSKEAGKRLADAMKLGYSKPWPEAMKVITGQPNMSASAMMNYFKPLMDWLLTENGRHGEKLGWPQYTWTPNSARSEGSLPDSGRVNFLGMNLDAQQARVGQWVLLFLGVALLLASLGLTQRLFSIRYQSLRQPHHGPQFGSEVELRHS
Experimental: as §1
Purified ACE from rabbit lungs (Sigma, St. Louis, Mo.) was dissolved in PBS (50 mM, pH 7.5, containing 300 mM NaCl and 10 μM ZnCl2; the final concentration of ACE was 45 μg/ml). Each of the peptide antagonists (200 μM) was incubated for 60 min at 37° C. with ACE (8.5 μl) (total volume medium, 187.5 μl). The enzymatic reaction was then terminated by boiling.
The experimental protocol for the measurement of ACE activity has been described elsewhere (Drapeau et a). 1993, J Pharmacol Exp Ther 266, 192–198; Gobeil et al., 1996, supra).

[2] = Ex vivo stability in rat tissue extracts from liver, lung and kidney (HPLC); settings: Wistar, after 24 hours, read-out: parent remaining
Experimental: Liver, lung and kidneys were collected from Wistar rats and resuspended in nine volume of PBS. The tissues were homogenized for 3×15 sec. on ice with a Polytron homogenizer and were centrifuged at 3000 rpm for 15 min. at 4° C. The supernatant was collected and kept at −80° C. until used.
Stability studies were initiated by adding the peptide […] to 50–100 μl of either plasma, serum or extract (10–100 μM final concentration) and incubated for 10 min to 24 hours at 37° C. The reaction was stopped by the addition of ice-cold acetonitrile (75% final concentration) containing 10 μM Lys-desArg^9BK (which serves as an internal control). The samples were vortexed and centrifuged at 13000 rpm for 20 min at 4° C. in a microfuge. The clear supernatant was transferred to a 1 ml tube and the samples were evaporated to dryness by lyophilisation. Finally, the samples were resuspended in 50 μl of HPLC-grade water.
Quantitative analysis of the extracted compound and standard controls was carried out using an Agilent reverse-phase HPLC (model 1100) coupled to a 4.6×150 mm Zorbax 300SB-C18 column (5 μm particle size) and equipped with a diode array detector. […] The elution positions and quantification of compounds were determined by following the absorbance at 226 nm. […]

T1 sequence (P15144 whole entry): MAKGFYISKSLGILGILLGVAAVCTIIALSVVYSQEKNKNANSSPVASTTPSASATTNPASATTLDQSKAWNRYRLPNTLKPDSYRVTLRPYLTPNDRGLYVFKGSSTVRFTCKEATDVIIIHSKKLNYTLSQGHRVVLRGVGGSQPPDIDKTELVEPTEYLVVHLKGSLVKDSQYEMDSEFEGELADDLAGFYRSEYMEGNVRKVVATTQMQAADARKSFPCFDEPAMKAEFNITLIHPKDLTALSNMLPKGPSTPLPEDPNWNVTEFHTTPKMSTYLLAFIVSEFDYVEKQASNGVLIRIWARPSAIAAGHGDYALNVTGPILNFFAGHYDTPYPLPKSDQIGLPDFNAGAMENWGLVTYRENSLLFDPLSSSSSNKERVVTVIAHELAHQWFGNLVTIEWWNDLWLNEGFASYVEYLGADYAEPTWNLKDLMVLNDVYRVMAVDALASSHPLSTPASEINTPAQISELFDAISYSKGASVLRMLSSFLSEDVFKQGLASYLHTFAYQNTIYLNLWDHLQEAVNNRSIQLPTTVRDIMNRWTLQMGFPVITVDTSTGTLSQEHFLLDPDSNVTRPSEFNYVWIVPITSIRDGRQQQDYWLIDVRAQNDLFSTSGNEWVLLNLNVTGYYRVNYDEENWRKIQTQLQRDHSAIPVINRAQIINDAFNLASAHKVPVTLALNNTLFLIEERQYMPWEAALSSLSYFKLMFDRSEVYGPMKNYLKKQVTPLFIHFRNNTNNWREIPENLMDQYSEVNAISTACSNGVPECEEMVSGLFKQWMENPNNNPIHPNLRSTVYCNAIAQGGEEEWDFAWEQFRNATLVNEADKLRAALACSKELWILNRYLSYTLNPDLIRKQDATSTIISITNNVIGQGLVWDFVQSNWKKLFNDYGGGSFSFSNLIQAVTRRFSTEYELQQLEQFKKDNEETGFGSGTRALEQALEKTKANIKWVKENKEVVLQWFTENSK

Row | Compound | metabolised at 1 h, 200 µM (aminopeptidase M (AmM)) [%] | metabolised at 1 h, 200 µM [1] [%] | remaining at 24 h [2] [%]
1 | CC[C@H](C)[C@H](NC(=O)[C@@H](Cc1ccc2ccccc2c1)NC(=O)[C@H](CO)NC(=O)[C@](C)(Cc1ccccc1)NC(=O)CNC(=O)[C@@H]1CCCN1C(=O)[C@@H]1C[C@@H]2CCCC[C@@H]2N1C(=O)[C@H](CCCNC(=N)N)NC(=O)[C@H](CCCCN)NC(C)=O)C(=O)O [Ac-Lys[Oic^2,(α-Me)Phe^5,D-βNal^7,Ile^8]desArg^9BK] (Ac-KR[Oic]PG[αMeF]S[d2Nal]I-OH) | 0 | 0 | –
2 | CC[C@H](C)[C@H](NC(=O)[C@@H](Cc1ccc2ccccc2c1)NC(=O)[C@H](CO)NC(=O)[C@](C)(Cc1ccccc1)NC(=O)CNC(=O)[C@@H]1CCCN1C(=O)[C@@H]1C[C@@H]2CCCC[C@@H]2N1C(=O)[C@H](CCCNC(=N)N)NC(=O)[C@H](CCCN)NC(C)=O)C(=O)O [compound c, Ac-Orn[Oic^2,(α-Me)Phe^5,D-βNal^7,Ile^8]desArg^9BK] (Ac-[Orn]R[Oic]PG[αMeF]S[d2Nal]I-OH) | 0 | 0 | > 75
